Literature values as cited in patent publication US8617618B2, “Topical compositions containing magaldrate” (Difass International S.R.L., priority 2007, dated 2013).

How the values were obtained:
[1] = in water and alcohol; white, crystalline powder
gastric pH = details: rapid, persistent ability to maintain the gastric pH
[2] = single and repeated oral doses
[3] = humans, oral intake

solubility [1]: insoluble
Substance: Magaldrate
gastric pH maintained (gastric pH): 3-5
toxicity [2]: almost non-toxic
absorption of aluminium or magnesium [3]: not followed by any significant absorption
